Results as given in ChEMBL document CHEMBL5291721, “A preclinical secondary pharmacology resource illuminates target-adverse drug reaction associations of marketed drugs” (Nat Commun, 2023).

Legend:
[1] = molecular target: 5-hydroxytryptamine receptor 2B (Homo sapiens, UniProt P41595)
Thromboxane A2 receptor = molecular target: T1, Thromboxane A2 receptor (Homo sapiens, UniProt P21731); type: functional
T1 sequence (P21731 whole entry): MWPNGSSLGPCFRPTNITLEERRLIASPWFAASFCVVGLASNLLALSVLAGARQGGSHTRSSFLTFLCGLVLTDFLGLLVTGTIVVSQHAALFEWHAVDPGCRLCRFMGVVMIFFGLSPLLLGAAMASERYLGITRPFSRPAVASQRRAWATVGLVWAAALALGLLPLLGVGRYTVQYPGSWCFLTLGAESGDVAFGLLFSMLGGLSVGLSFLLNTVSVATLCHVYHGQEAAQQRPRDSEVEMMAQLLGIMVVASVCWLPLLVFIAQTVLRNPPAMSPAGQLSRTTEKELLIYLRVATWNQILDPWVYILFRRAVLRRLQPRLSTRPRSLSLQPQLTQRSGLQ

Bile acid receptor [2] = molecular target: T2, Bile acid receptor (Homo sapiens, UniProt Q96RI1); type: functional
T2 sequence (Q96RI1 whole entry): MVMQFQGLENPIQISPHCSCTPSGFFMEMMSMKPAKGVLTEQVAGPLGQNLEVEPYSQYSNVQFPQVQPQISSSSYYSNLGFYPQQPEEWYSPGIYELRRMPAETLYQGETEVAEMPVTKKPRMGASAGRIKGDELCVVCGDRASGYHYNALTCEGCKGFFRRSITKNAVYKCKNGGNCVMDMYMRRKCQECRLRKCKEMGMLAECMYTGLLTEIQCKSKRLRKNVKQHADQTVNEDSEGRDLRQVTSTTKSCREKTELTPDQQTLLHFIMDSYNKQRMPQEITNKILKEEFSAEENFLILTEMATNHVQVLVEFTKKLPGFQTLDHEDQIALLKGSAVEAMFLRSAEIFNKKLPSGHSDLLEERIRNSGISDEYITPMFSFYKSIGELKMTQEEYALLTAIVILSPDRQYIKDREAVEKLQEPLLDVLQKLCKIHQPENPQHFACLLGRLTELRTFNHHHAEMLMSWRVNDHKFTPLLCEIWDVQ

[3] = molecular target: T3, Retinoic acid receptor alpha (Homo sapiens, UniProt P10276); type: functional, cell-based
T3 sequence (P10276 whole entry): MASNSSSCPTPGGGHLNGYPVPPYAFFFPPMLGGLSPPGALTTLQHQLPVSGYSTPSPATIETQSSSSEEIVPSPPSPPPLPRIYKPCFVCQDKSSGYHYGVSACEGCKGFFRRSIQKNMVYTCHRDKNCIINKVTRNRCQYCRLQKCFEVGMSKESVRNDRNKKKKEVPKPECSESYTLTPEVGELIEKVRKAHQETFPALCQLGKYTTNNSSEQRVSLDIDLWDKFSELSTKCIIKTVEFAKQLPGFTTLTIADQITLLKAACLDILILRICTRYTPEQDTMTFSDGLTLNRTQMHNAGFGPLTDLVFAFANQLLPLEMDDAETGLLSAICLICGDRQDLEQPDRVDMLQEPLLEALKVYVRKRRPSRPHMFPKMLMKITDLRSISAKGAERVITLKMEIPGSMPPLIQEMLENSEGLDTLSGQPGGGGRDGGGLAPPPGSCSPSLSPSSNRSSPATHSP

Bile acid receptor [4] = molecular target: T2, Bile acid receptor; type: functional; remark: listed apart in the source
[5] = molecular target: T4, Oxysterols receptor LXR-alpha (Homo sapiens, UniProt Q13133); type: functional
T4 sequence (Q13133 whole entry): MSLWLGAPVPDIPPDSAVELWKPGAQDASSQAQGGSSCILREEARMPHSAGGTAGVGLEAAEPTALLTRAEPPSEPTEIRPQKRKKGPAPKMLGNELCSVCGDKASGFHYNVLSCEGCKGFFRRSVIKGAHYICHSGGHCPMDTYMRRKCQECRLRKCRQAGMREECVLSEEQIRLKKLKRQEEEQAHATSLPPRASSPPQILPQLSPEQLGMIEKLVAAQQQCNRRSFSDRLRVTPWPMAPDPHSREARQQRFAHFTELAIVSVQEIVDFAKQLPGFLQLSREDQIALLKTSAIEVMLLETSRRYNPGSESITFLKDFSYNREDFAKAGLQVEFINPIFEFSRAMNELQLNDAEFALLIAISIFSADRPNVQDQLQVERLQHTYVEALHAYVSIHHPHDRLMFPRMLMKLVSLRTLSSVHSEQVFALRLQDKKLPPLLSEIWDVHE

[6] = molecular target: T5, Retinoic acid receptor gamma (Homo sapiens, UniProt P13631); type: functional, cell-based
T5 sequence (P13631 whole entry): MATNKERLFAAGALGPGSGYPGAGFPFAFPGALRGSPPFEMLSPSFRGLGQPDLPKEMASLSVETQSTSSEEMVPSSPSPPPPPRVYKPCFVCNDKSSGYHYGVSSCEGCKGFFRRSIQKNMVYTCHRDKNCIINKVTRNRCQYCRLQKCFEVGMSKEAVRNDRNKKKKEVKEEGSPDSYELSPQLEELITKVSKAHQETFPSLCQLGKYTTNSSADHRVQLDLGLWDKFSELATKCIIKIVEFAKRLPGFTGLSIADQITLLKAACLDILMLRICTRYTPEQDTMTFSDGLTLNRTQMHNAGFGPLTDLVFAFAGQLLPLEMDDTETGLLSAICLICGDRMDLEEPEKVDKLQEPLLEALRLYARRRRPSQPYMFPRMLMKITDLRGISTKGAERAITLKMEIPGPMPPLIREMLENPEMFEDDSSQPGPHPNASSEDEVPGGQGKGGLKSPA

[7] = molecular target: T6, Peroxisome proliferator-activated receptor alpha (Homo sapiens, UniProt Q07869); type: functional
T6 sequence (Q07869 whole entry): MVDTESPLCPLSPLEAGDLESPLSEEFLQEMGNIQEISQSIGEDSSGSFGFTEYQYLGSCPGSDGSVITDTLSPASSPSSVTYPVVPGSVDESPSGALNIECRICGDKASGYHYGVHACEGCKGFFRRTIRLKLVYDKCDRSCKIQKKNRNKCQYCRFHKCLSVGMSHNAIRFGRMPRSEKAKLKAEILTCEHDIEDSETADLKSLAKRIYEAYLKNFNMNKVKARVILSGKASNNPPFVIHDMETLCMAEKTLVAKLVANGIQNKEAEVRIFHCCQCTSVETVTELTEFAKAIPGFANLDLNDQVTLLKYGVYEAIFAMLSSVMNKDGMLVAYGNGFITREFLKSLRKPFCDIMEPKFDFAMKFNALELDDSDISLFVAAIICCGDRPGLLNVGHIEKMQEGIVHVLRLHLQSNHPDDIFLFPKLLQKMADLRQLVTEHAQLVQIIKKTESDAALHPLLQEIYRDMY
Also: assay procedure not described here.

5-hydroxytryptamine receptor 2B, sequence (P41595 whole entry): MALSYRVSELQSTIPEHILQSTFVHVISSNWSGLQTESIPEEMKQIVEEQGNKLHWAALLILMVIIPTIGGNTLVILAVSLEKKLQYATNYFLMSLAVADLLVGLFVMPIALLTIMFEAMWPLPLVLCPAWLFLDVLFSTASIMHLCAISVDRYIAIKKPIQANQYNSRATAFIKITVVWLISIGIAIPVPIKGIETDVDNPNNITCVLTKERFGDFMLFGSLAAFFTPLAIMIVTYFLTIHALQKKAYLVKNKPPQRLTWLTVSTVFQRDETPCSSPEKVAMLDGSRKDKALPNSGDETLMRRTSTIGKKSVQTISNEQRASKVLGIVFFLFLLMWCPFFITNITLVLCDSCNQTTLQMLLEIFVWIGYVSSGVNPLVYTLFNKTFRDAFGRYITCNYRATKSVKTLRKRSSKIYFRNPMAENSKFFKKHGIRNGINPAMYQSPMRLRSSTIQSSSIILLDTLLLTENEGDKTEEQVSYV

Row | SMILES | AC50 [1] [µM] | AC50 (Thromboxane A2 receptor) [µM] | AC50 (Bile acid receptor [2]) [µM] | AC50 [3] [µM] | AC50 (Bile acid receptor [4]) [µM] | AC50 [5] [µM] | AC50 [6] [µM] | AC50 [7] [µM]
1 | N=C(N)NC(=O)Cc1c(Cl)cccc1Cl [GUANFACINE] | 1.01 | > 30 | – | – | – | – | – | –
2 | CC(=O)N1CCN(c2ccc(OCC3COC(Cn4ccnc4)(c4ccc(Cl)cc4Cl)O3)cc2)CC1 (stereo not drawn) [KETOCONAZOLE] | – | – | > 30 | > 30 | > 30 | > 10 | > 30 | > 30
